Experiment in all cases: Anaerobic cultures, gut bacterial groups by fluorescent in situ hybridisation at 24 hours
Type in all cases: cell-based

For experiment [1], the system named is Bacteroides. The method, then:
(§1) In these experiments, anaerobic cultures were tested to evaluate the in vitro utilisation of a novel Lactobacillus reuteri galactooligosaccharide by monitoring the populations of gut bacterial groups at 24 hours using fluorescent in situ hybridisation, and short-chain fatty acid (SCFA). Fructooligosaccharides (FOS), melibiose and raffinose were used as reference carbohydrates.

In experiment [2] the test system is Eubacteria. The method, then:
as §1

The subject of experiment [3] is Lactobacilli. The method, then: as §1
Experiment [4] deals with Total count. The method, then:
as §1

Experiment [5] concerns Bifidobacteria. The method, then:
as §1

Experiment [6] concerns E. coli. The method, then: as §1
The test system of experiment [7] is Clostridia. Conditions: for Clostridia count, 24: 24 hours, anaerobic culture, inoculum 7.55; for Clostridia, 24 hr % change: 24 hr vs inoculum. The method, then: as §1

Molecules are shown by their SMILES.

With `OC[C@H]1O[C@H](OCC2O[C@@H](O)[C@H](O)[C@@H](O)[C@@H]2O)[C@H](O)[C@@H](O)[C@H]1O` (stereo partly shown) [Melibiose, melibiose], the “Bacteroides count, 24” value in experiment [1] (24 hours, anaerobic culture, inoculum 7.98) is reported as 7.9. In addition, the “Bacteroides, 24 hr % change” value in experiment [1] (24 hr vs inoculum) amounted to 99%. Moreover, the “Eubacteria count, 24” value in experiment [2] (24 hours, anaerobic culture, inoculum 8.06) came out at 7.84. Also, the “Eubacteria, 24 hr % change” value in experiment [2] (24 hr vs inoculum) came out at 97%. Further, the “Lactobacilli count, 24” value in experiment [3] (24 hours, anaerobic culture, inoculum 7.15) was 7.43. The “Lactobacilli, 24 hr % change” value in experiment [3] (24 hr vs inoculum) is given as 104%. Also, in experiment [4] (24 hours, anaerobic culture, inoculum 8.84), the “Total count, 24” value came to 9.14. In addition, the “Total count, 24 hr % change” value in experiment [4] (24 hr vs inoculum) is given as 103%. Besides, the “Bifidobacteria count, 24” value in experiment [5] (24 hours, anaerobic culture, inoculum 6.85) worked out at 7.33. Further, in experiment [5] (24 hr vs inoculum), the “Bifidobacteria, 24 hr % change” value is given as 107%. For the same compound, the “E. coli count, 24” value in experiment [6] (24 hours, anaerobic culture, inoculum 8.14) was 7.66. For the same compound, in experiment [6] (24 hr vs inoculum), the “E. coli, 24 hr % change” value came out at 94%. Also, in experiment [7], the “Clostridia count, 24” value stood at 7.65 and the “Clostridia, 24 hr % change” value was 101%.

As to `OC[C@H]1O[C@H](OC[C@H]2O[C@H](O[C@]3(CO)O[C@H](CO)[C@@H](O)[C@@H]3O)[C@H](O)[C@@H](O)[C@@H]2O)[C@H](O)[C@@H](O)[C@H]1O` [Raffinose, raffinose], in experiment [7], the “Clostridia count, 24” value is on record as 7.81 and the “Clostridia, 24 hr % change” value is 103%.

(Values after patent publication US11173170B2, “Prebiotic composition and its methods of production” (Optibiotix Limited, priority 2014, dated 2021).)
